Measured values reported in patent US11084829B2, “Ubiquitin-specific-processing protease 7 (USP7) modulators and uses thereof” (RAPT THERAPEUTICS, INC., priority 2018, dated 2021).
Read-outs that look alike come from different tables or passages of the source.

Legend:
[1] = tested on: MYCN; experiment: Western blot of MYCN in H526 cells; format: cell-based; conditions: after 2, 8 or 24 hours of treatment
Experimental: (§1) For Western blotting, compound-treated cells were lysed in RIPA lysis buffer (ThermoScientific) containing Halt Protease and Phosphatase Inhibitor Cocktail (Life Technologies). Lysates were quantified using the BCA protein assay (Pierce) and equivalent protein was separated by SDS-PAGE (4-12%, ThermoScientific). Following electrophoresis, proteins were transferred to PVDF membranes. […] Caspase activation assays were performed on compound-treated cells using the Caspase-Glo 3/7 Assay Kit (Promega) according to the manufacturer's protocol, and luminescence was measured using a CLARIOstar plate reader (BMG LABTECH). […] Data were collected using FACSCanto (Becton Dickinson) and Attune (Thermo Fisher Scientific) flow cytometers and analyzed with FlowJo software (FlowJo LLC). […] Lysates were quantified using the BCA protein assay (Pierce) and equivalent protein was used in the PathScan Phospho-S6 Ribosomal Protein (Ser235/236) Sandwich ELISA Kit (Cell Signaling) according to the manufacturer's protocol. Absorbance was measured using the Spectramax 300 plate reader (Molecular Devices).
(§2) The effect of pharmacological inhibition of USP7 on the viability of the p53 mutant small cell lung cancer cell line, H526 was further evaluated. […]

[2] = tested on: SK-N-DZ; experiment: Cell viability (CellTiter-Glo), SK-N-DZ; format: cell-based; conditions: Homo sapiens, neuroblastoma, MYCN-amplified, p53-mutant
Experimental: (§3) CHP-134 was purchased from Sigma Aldrich, MOLM-13 was purchased from AddexBio, and NB-1 was purchased from Sekisui XenoTech. All other cell lines were purchased from American Type Culture Collection. For all cell lines, identity was confirmed by short tandem repeat profiling and culturing was performed in recommended growth medium. For studies evaluating cellular effects of compound treatment, 250 to 2,000 cells in 40 μl of recommended medium were seeded per well in 384-well plates (Corning 3764). DMSO-solubilized compounds were added in duplicate in a two-fold dilution series using a D300e Digital Dispenser (Hewlett-Packard). Following a 5-day incubation, cell viability was measured using CellTiter-Glo (Promega) following the manufacturer's instructions. Luminescence was measured using a CLARIOstar plate reader (BMG LABTECH) and normalized to that of DMSO-treated cells. IC50 values were determined by non-linear regression using a 4-parameter fit in Prism (GraphPad Software). Inhibitor profiling of the 430-cell line panel was conducted and analyzed similarly.
(§4) In addition to the many p53 wild-type cell lines in the cell line panel that were sensitive to USP7 inhibition, a subset of p53 mutant cell lines that were inhibited by our USP7 inhibitors were identified and are shown in Table 5.

[3] = tested on: LA-N-2; experiment: Cell viability (CellTiter-Glo), LA-N-2; format: cell-based; conditions: LA-N-2, neuroblastoma, MYCN-amplified, p53-mutant
Experimental: as §3, §4

[4] = molecular target: USP7 (Homo sapiens, UniProt Q93009); experiment: USP7 inhibitory potency (IC50); format: biochemical
Sequence of USP7 (Q93009 whole entry): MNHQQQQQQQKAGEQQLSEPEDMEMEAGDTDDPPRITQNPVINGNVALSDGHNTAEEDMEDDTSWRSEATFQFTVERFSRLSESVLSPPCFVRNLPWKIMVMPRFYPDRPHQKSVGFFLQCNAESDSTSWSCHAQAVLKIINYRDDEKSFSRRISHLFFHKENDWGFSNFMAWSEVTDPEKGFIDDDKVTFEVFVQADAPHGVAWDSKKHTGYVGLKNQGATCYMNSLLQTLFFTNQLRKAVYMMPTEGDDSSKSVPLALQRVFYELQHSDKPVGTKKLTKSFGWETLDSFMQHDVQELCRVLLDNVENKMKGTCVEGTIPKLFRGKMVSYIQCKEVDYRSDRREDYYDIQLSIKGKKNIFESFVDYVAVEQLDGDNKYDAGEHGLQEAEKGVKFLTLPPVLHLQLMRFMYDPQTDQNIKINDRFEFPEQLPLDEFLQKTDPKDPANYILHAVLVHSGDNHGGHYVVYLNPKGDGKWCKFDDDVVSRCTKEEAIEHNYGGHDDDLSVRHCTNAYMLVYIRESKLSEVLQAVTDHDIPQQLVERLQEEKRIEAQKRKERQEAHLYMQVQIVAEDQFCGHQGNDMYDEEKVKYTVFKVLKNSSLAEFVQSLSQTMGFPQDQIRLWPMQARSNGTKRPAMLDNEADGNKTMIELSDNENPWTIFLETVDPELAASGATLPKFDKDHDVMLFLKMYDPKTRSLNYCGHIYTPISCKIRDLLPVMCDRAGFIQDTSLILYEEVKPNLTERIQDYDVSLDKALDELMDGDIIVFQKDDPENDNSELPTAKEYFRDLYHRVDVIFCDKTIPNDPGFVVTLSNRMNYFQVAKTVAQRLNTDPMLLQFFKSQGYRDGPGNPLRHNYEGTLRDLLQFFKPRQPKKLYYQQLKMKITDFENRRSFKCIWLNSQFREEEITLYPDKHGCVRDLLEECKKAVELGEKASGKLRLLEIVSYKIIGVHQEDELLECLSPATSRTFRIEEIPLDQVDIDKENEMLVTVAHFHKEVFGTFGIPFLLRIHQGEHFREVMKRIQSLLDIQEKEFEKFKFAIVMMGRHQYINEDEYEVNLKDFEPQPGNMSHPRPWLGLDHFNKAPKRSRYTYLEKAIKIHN
Experimental: Activity for compounds described herein is provided in Table 2, wherein potency levels are provided as follows: (Potency: USP7 IC50: A<0.01 μM; B=0.01-0.1 μM; C=>0.1 μM.

[5] = tested on: MM.1S; experiment: Cell viability (CellTiter-Glo), MM.1S; format: cell-based; conditions: Homo sapiens, MM1.S, p53 wild-type
Experimental: as §3
(§5) USP7 inhibition by the compounds of Examples 31 and 124 reduced the viability of several p53-wild type blood cancer cell lines, including M07e, OCI-AML5 and MOLM13, in vitro as shown in the following Table 3. Idasanutlin was used as a positive control, and as expected these cell lines were also sensitive to this compound.

[6] = tested on: SH-SY5Y; experiment: Cell viability (CellTiter-Glo), SH-SY5Y; format: cell-based; conditions: Homo sapiens, neuroblastoma, MYC amplified, p53 wild-type
Experimental: as §3
(§6) USP7 has been reported to stabilize MYCN (also referred to as MYCN proto-oncogene, a gene that is a member of the MYC family which is over-expressed in a variety of tumors). Since MYCN amplification is an established driver mutation in neuroblastoma, the effect of USP7 inhibition on a panel of p53 wild-type, MYCN- or MYC-amplified neuroblastoma cell lines was tested. The USP7 inhibitors of Examples 31 and 124 reduced viability of all three MYCN-amplified and two MYC-amplified neuroblastoma cell lines tested as shown in Table 4. Idasanutlin was used as a positive control, and as expected these cell lines were also sensitive to this compound.

[7] = Tolerability in tumor-free mice (preliminary to H526 study); format: in vivo; conditions: preliminary testing, oral 50 mg/kg twice daily or 100 mg/kg daily
[8] = tested on: CHP-134; experiment: Cell viability (CellTiter-Glo), CHP-134; format: cell-based; conditions: Homo sapiens; CHP-134, neuroblastoma, MYCN amplified, p53 wild-type
Experimental: as §3, §6

[9] = tested on: H526 xenograft; experiment: H526 xenograft model in athymic nude mice; format: in vivo
Experimental: (§7) MM. 1S and H526 xenograft studies were conducted according to the guidelines approved by the Applicant's Institutional Animal Care and Use Committee (IACUC). MM.1S cells were inoculated in PBS into irradiated NOD/SCID mice, while H526 cells were inoculated in PBS/Matrigel (Corning) into Nu/Nu mice (Jackson Laboratories). Mice were randomized into groups when mean tumor size reached 150 mm^3 (MM.1S) or 50-100 mm^3 (H526), respectively, and drug administration by oral gavage was started on day of randomization. Tumor volumes and body weights were subsequently measured twice per week. Tumor volumes were calculated using the formula: V=0.5(A×B^2), where A and B are the long and short diameters of the tumor, respectively.
(§8) The effect of pharmacological inhibition of USP7 on the viability of the p53 mutant small cell lung cancer cell line, H526 was further evaluated. […] In contrast, idasanutlin, whose inhibitory effect is dependent on a functional p53 pathway, had no effect.

[10] = tested on: NB-1; experiment: Cell viability (CellTiter-Glo), NB-1; format: cell-based; conditions: Homo sapiens, NB1; NB-1, neuroblastoma, MYCN amplified, p53 wild-type
Experimental: as §3, §6

[11] = tested on: H526; experiment: Cell viability (CellTiter-Glo), H526; format: cell-based; conditions: Homo sapiens, NCI-H526
Experimental: as §3, §4, §8

[12] = tested on: p21; experiment: Western blot of p21 in H526 cells; format: cell-based; conditions: after 2, 8 or 24 hours of treatment
Experimental: as §1, §2

[13] = tested on: M07e; experiment: Cell viability (CellTiter-Glo), M07e; format: cell-based; conditions: M-07e, AML, p53 wild-type
Experimental: as §3, §5

[14] = tested on: MOLM13; experiment: Cell viability (CellTiter-Glo), MOLM13; format: cell-based; conditions: Homo sapiens, MOLM-13; MOLM13, AML, p53 wild-type
Experimental: as §3, §5

[15] = tested on: OCI-AML5; experiment: Cell viability (CellTiter-Glo), OCI-AML5; format: cell-based; conditions: Homo sapiens, OCI-AML-5, p53 wild-type
Experimental: as §3, §5

[16] = tested on: MOLP8; experiment: Cell viability (CellTiter-Glo), MOLP8; format: cell-based; conditions: Homo sapiens, MOLP-8; MOLP8, MM, p53 wild-type
Experimental: as §3, §5

[17] = tested on: NCI-H929; experiment: Cell viability (CellTiter-Glo), NCI-H929; format: cell-based; conditions: Homo sapiens; NCI-H929, MM, p53 wild-type
Experimental: as §3, §5

[18] = tested on: HCC1937; experiment: Cell viability (CellTiter-Glo), HCC1937; format: cell-based; conditions: Homo sapiens; HCC1937, breast, triple-negative, BRCA1 mutant, p53-mutant
Experimental: as §3, §4

[19] = Tolerability in tumor-free NOD-SCID mice; format: in vivo; conditions: daily oral 50 mg/kg and 100 mg/kg, preliminary experiments
Experimental: (§9) The effects of USP7 inhibition were assessed in vivo in the MM.1S xenograft model in NOD-SCID mice via daily oral dosing of the USP7 inhibitor 3-((7-(5-chloro-2-(((2S,6S)-2,6-dimethylpiperazin-1-yl)methyl)-3-methylphenyl)thieno[3,2-b]pyridin-2-yl)methyl)-3-azabicyclo[3.1.0]hexane-2,4-dione (the compound of Example 31) at 50 mg/kg and 100 mg/kg. […] However, brief dosing holidays allowed the mice to recover and dosing to continue.

[20] = tested on: MM.1S xenograft; experiment: MM.1S xenograft model in NOD-SCID mice; format: in vivo
Experimental: as §7, §9

[21] = tested on: EOL-1; experiment: Cell viability (CellTiter-Glo), EOL-1; format: cell-based; conditions: Homo sapiens, EOL1; EOL-1, AML, p53 wild-type
Experimental: as §3, §5

[22] = H526 xenograft, athymic nude mice, twice-daily oral 50 mg/kg (FIG. 2) or daily oral 100 mg/kg (data not shown)
[23] = H526, lung, small cell, p53-mutant, read-out: CC50
[24] = H526, p53 mutant small cell lung cancer, CellTiter-Glo assay, read-out: CC50 (viability of H526 in vitro)

| SMILES | CC50 [2] [nM] | CC50 [3] [nM] | IC50 [4] [nM] | CC50 [5] [nM] | CC50 [6] [nM] | CC50 [8] [nM] | CC50 [10] [nM] | CC50 [11, 23] [nM] | CC50 [11, 24] [nM] | CC50 [13] [nM] | CC50 [14] [nM] | CC50 [15] [nM] | further results |
| --- | --- | --- | --- | --- | --- | --- | --- | --- | --- | --- | --- | --- | --- |
| Cc1cc(Cl)cc(-c2ccnc3cc(CN4C(=O)C5C(C4=O)C5(C)C)sc23)c1C[C@@H]1CNCCO1 (stereo partly drawn) [Example 124, 3-((7-(5-chloro-3-methyl-2-(((R)-morpholin-2-yl)methyl)phenyl)thieno[3,2-b]pyridin-2-yl)methyl)-6,6-dimethyl-3-azabicyclo[3.1.0]hexane-2,4-dione] | 200 | 200 | < 10 | 100 | 1900 | 600 | 500 | 500 | 500 | 200 | 400 | 200 | MYCN protein levels [1]: did not reduce MYCN protein levels; tolerability [7]: well tolerated; survival [9, 22]: prolonged survival; tumor growth [9, 22]: inhibited tumor growth; tolerability ([9]; tumor-bearing mice of the H526 study, oral 50 mg/kg twice daily or 100 mg/kg daily): well tolerated; p21 level [12]: did not induce any change in p21 level |
| Cc1cc(Cl)cc(-c2ccnc3cc(CN4C(=O)C5CC5C4=O)sc23)c1CN1[C@@H](C)CNC[C@@H]1C (stereo partly drawn) [Example 31, 3-((7-(5-chloro-2-(((2S,6S)-2,6-dimethylpiperazin-1-yl)methyl)-3-methylphenyl)thieno[3,2-b]pyridin-2-yl)methyl)-3-azabicyclo[3.1.0]hexane-2,4-dione] | 200 | 600 | < 10 | 100 | 1800 | 500 | 600 | 500 | 500 | 100 | 100 | 200 | CC50 [16]: 200 nM; CC50 [17]: 400 nM; CC50 [18]: 100 nM; tolerability [19]: well tolerated; tumor growth ([20]; MM.1S xenograft, NOD-SCID mice, daily oral dosing at 50 mg/kg and 100 mg/kg, FIG. 1A): effectively inhibited MM.1S tumor growth; survival ([20]; MM.1S xenograft, NOD-SCID mice, daily oral dosing at 50 mg/kg and 100 mg/kg, FIG. 1B): prolonged survival in a dose-dependent manner; body weight ([20]; tumor-bearing NOD-SCID mice, longer-term xenograft study, daily oral 50 and 100 mg/kg, recovered with brief dosing holidays): dose-dependent body weight loss in a fraction of mice; CC50 [21]: 40 nM |
